Results: patent US11673910B2, “Macrolides with modified desosamine sugars and uses thereof” (Zikani Therapeutics, Inc., priority 2017, dated 2023)
Values after ≈ are worked out from the molar mass of the structure shown.

Experiments:
Format in all cases: cell-based
S. aureus strain MP-12 = assay: Broth dilution MIC determination (CLSI) against S. aureus strain MP-12; conditions: for MIC: Staphylococcus aureus, MP12, strain MP-12; for MIC against S. aureus (MP-12): strain MP-12
Procedure: (§1) Minimum inhibitory concentrations (MICs) for macrolides described herein were determined for E. coli strain MP-4, K. pneumoniae strain MP-548, P. aeruginosa strain MP-3, A. baumannii strain MP-15, and S. aureus strain MP-12 using similar test procedures as published in US Pat. Pub. No. 2017/0305953. MIC data is represented as “+++” for values less than or equal to 4 mg/L, “++” for values of greater than or equal to 8 mg/L and less than 32 mg/L, and “+” for values of 32 mg/L or greater. ND indicates no data for a particular compound. CLSI standard procedures for broth dilution MIC determination were used.

[1] = test system: P. aeruginosa strain MP-3; assay: Broth dilution MIC determination (CLSI) against P. aeruginosa strain MP-3; conditions: Pseudomonas aeruginosa, MP3
Procedure: as §1

[2] = test system: A. baumannii strain MP-15; assay: Broth dilution MIC determination (CLSI) against A. baumannii strain MP-15; conditions: Acinetobacter baumannii, MP15
Procedure: as §1

E. coli strain MP-4 = assay: Broth dilution MIC determination (CLSI) against E. coli strain MP-4; conditions: Escherichia coli, MP4
Procedure: as §1

[3] = test system: K. pneumoniae strain MP-548; assay: Broth dilution MIC determination (CLSI) against K. pneumoniae strain MP-548; conditions: Klebsiella pneumoniae, MP548
Procedure: as §1

| Compound | MIC (S. aureus strain MP-12) | MIC [1] | MIC [2] | MIC (E. coli strain MP-4) | MIC [3] | MIC against S. aureus (MP-12) (S. aureus strain MP-12) |
| --- | --- | --- | --- | --- | --- | --- |
| CC[C@H]1OC(=O)C(C)C(=O)[C@H](C)[C@@H](O[C@@H]2O[C@H](CNC3CC3)CC(N(C)C)[C@H]2O)[C@](C)(OC)C[C@@H](C)CN(C)[C@H](C)[C@H]2NC(=O)O[C@@]21C (stereo partly shown) [Compound 161, 3-Descladinosyl-3-oxo-6-O-methyl-11,12-dideoxy-12,11-(oxycarbonylimino)-6′-cyclopropylamino Azithromycin] | 8 to 32 µg/mL (≈ 11.7 to 46.9 µM) | ≥ 32 µg/mL | 8 to 32 µg/mL (≈ 11.7 to 46.9 µM) | ≤ 4 µg/mL | ≤ 4 µg/mL | – |
| CC[C@H]1OC(=O)C(C)C(=O)[C@H](C)[C@@H](OC2OC(CN(C)C3CCC3)CC(N(C)C)C2O)[C@](C)(OC)C[C@@H](C)CN[C@H](C)[C@H]2NC(=O)O[C@@]21C (stereo partly shown) [Compound 150, 3-Descladinosyl-3-oxo-6-O-methyl-N9a-desmethyl-11,12-dideoxy-12,11-(oxycarbonylimino)-6′-methylcyclobutylamino Azithromycin] | ≥ 32 µg/mL | ≥ 32 µg/mL | ≥ 32 µg/mL | 8 to 32 µg/mL (≈ 11.5 to 45.9 µM) | ≥ 32 µg/mL | – |
| CC[C@H]1OC(=O)C(C)C(=O)[C@H](C)[C@@H](OC2OC(CNC(C)(C)C)CC(N(C)C)C2O)[C@](C)(OC)C[C@@H](C)CN[C@H](C)[C@H]2NC(=O)O[C@@]21C (stereo partly shown) [Compound 110, 3-Descladinosyl-3-oxo-6-O-methyl-N9a-desmethyl-11,12-dideoxy-12,11-(oxycarbonylimino)-6′-tert-butylamino Azithromycin] | ≥ 32 µg/mL | ≥ 32 µg/mL | ≥ 32 µg/mL | ≤ 4 µg/mL | 8 to 32 µg/mL (≈ 11.7 to 46.7 µM) | – |
| CC[C@H]1OC(=O)C(C)C(=O)[C@H](C)[C@@H](O[C@@H]2OC(CNc3ccc4ncncc4c3)CC(N(C)C)C2O)[C@](C)(OC)C[C@@H](C)CN[C@H](C)[C@H]2NC(=O)O[C@@]21C (stereo partly shown) [Compound 27] | ≥ 32 µg/mL | ≥ 32 µg/mL | ≥ 32 µg/mL | 8 to 32 µg/mL (≈ 10.6 to 42.3 µM) | ≥ 32 µg/mL | – |
| CC[C@H]1OC(=O)C(C)C(=O)[C@H](C)[C@@H](O[C@@H]2OC(CNCc3cccc(F)c3)CC(N(C)C)C2O)[C@](C)(OC)C[C@@H](C)CN[C@H](C)[C@H]2NC(=O)O[C@@]21C (stereo partly shown) [Compound 30] | ≥ 32 µg/mL | ≥ 32 µg/mL | ≥ 32 µg/mL | ≤ 4 µg/mL | ≥ 32 µg/mL | – |
| CC[C@H]1OC(=O)C(C)C(=O)[C@H](C)[C@@H](O[C@@H]2O[C@H](CCc3ccccc3)CC(N(C)C)[C@H]2O)[C@](C)(OC)C[C@@H](C)CN[C@H](C)[C@H]2NC(=O)O[C@@]21C (stereo partly shown) [Compound 186, 3-Descladinosyl-3-oxo-6-O-methyl-N9a-desmethyl-11,12-dideoxy-12,11-(oxycarbonylimino)-6′-benzyl Azithromycin] | ≤ 4 µg/mL | ≥ 32 µg/mL | 8 to 32 µg/mL (≈ 11.4 to 45.5 µM) | ≤ 4 µg/mL | 8 to 32 µg/mL (≈ 11.4 to 45.5 µM) | – |
| CC[C@H]1OC(=O)C(C)C(=O)[C@H](C)[C@@H](OC2OC(CNC(C)C)CC(N(C)C)C2O)[C@](C)(OC)C[C@@H](C)CN[C@H](C)[C@H]2NC(=O)O[C@@]21C (stereo partly shown) [Compound 109, 3-Descladinosyl-3-oxo-6-O-methyl-N9a-desmethyl-11,12-dideoxy-12,11-(oxycarbonylimino)-6′-isopropylamino Azithromycin] | ≥ 32 µg/mL | ≥ 32 µg/mL | ≥ 32 µg/mL | 8 to 32 µg/mL (≈ 11.9 to 47.7 µM) | ≥ 32 µg/mL | – |
| CC[C@H]1OC(=O)C(C)C(=O)[C@H](C)[C@@H](OC2OC(CNCC(=O)OC)CC(N(C)C)C2O)[C@](C)(OC)C[C@@H](C)CN[C@H](C)[C@H]2NC(=O)O[C@@]21C (stereo partly shown) [Compound 127, 3-Descladinosyl-3-oxo-6-O-methyl-N9a-desmethyl-11,12-dideoxy-12,11-(oxycarbonylimino)-6′-(methyl aminomethylcarboxylate) Azithromycin] | ≥ 32 µg/mL | ≥ 32 µg/mL | ≥ 32 µg/mL | ≤ 4 µg/mL | 8 to 32 µg/mL (≈ 11.4 to 45.7 µM) | – |
| CC[C@H]1OC(=O)C(C)C(=O)[C@H](C)[C@@H](OC2OC(CNCCOC)CC(N(C)C)C2O)[C@](C)(OC)C[C@@H](C)CN[C@H](C)[C@H]2NC(=O)O[C@@]21C (stereo partly shown) [Compound 114, 3-Descladinosyl-3-oxo-6-O-methyl-N9a-desmethyl-11,12-dideoxy-12,11-(oxycarbonylimino)-6′-(2-methoxyamino) Azithromycin] | ≥ 32 µg/mL | ≥ 32 µg/mL | ≥ 32 µg/mL | ≤ 4 µg/mL | 8 to 32 µg/mL (≈ 11.6 to 46.6 µM) | – |
| CC[C@H]1OC(=O)C(C)(C)C(=O)[C@H](C)[C@@H](O[C@@H]2O[C@H](CNC3CC3)CC(N(C)C)[C@H]2O)[C@](C)(OC)C[C@@H](C)CN[C@H](C)[C@H]2NC(=O)O[C@@]21C (stereo partly shown) [Compound 192, 2-Methyl-3-descladinosyl-3-oxo-6-O-methy 1-N9a-desmethyl-11,12-dideoxy-12,11-(oxycarbonylimino)-6′-cylcopropylamino Azithromycin] | ≥ 32 µg/mL | ≥ 32 µg/mL | ≥ 32 µg/mL | ≤ 4 µg/mL | ≥ 32 µg/mL | – |
| CC[C@H]1OC(=O)[C@@](C)(F)C(=O)[C@H](C)[C@@H](O[C@@H]2OC(CNCc3ccn(C)n3)CC(N(C)C)C2O)[C@](C)(OC)C[C@@H](C)C(=O)[C@H](C)[C@H]2NC(=O)O[C@@]21C (stereo partly shown) [Compound 102] | ≤ 4 µg/mL | ≥ 32 µg/mL | ≥ 32 µg/mL | 8 to 32 µg/mL (≈ 10.8 to 43.3 µM) | ≥ 32 µg/mL | – |
| CC[C@H]1OC(=O)C(C)C(=O)[C@H](C)[C@@H](OC2OC(CN3CCOCC3)CC(N(C)C)C2O)[C@](C)(OC)C[C@@H](C)CN[C@H](C)[C@H]2NC(=O)O[C@@]21C (stereo partly shown) [Compound 132, 3-Descladinosyl-3-oxo-6-O-methyl-N9a-desmethyl-11,12-dideoxy-12,11-(oxycarbonylimino)-6′-(1-morpholino) Azithromycin] | 8 to 32 µg/mL (≈ 11.4 to 45.8 µM) | ≥ 32 µg/mL | ≥ 32 µg/mL | ≤ 4 µg/mL | 8 to 32 µg/mL (≈ 11.4 to 45.8 µM) | – |
| CC[C@H]1OC(=O)C(C)C(=O)[C@H](C)[C@@H](O[C@@H]2O[C@H](CN(C)C(=O)CN(C)C3CC3)CC(N(C)C)[C@H]2O)[C@](C)(OC)C[C@@H](C)CN[C@H](C)[C@H]2NC(=O)O[C@@]21C (stereo partly shown) [Compound 172, 3-Descladinosyl-3-oxo-6-O-methyl-N9a-desmethyl-11,12-dideoxy-12,11-(oxycarbonylimino)-6′-(N-methyl-N-(2-cyclopropylamino)acetylamino) Azithromycin] | ≥ 32 µg/mL | ≥ 32 µg/mL | ≥ 32 µg/mL | ≥ 32 µg/mL | ≥ 32 µg/mL | – |
| CC[C@H]1OC(=O)C(C)C(=O)[C@H](C)[C@@H](O[C@@H]2OC(CNCc3ccc(C#N)cc3)CC(N(C)C)C2O)[C@](C)(OC)C[C@@H](C)CN[C@H](C)[C@H]2NC(=O)O[C@@]21C (stereo partly shown) [Compound 40] | ≥ 32 µg/mL | ≥ 32 µg/mL | ≥ 32 µg/mL | ≤ 4 µg/mL | ≥ 32 µg/mL | – |
| CC[C@H]1OC(=O)[C@]2(C)CCO[C@](C)(C[C@@H](C)CN[C@H](C)[C@H]3NC(=O)O[C@@]31C)[C@H](O[C@@H]1O[C@H](CN3CCCCC3)C[C@H](N(C)C)[C@H]1O)[C@@H](C)C2=O [Compound 198] | 8 to 32 µg/mL (≈ 11.3 to 45.1 µM) | ≥ 32 µg/mL | ≥ 32 µg/mL | ≤ 4 µg/mL | 8 to 32 µg/mL (≈ 11.3 to 45.1 µM) | – |
| CC[C@H]1OC(=O)C(C)C(=O)[C@H](C)[C@@H](O[C@@H]2OC(CNCCc3ccc(F)cc3)CC(N(C)C)C2O)[C@](C)(OC)C[C@@H](C)CN[C@H](C)[C@H]2NC(=O)O[C@@]21C (stereo partly shown) [Compound 39] | ≥ 32 µg/mL | ≥ 32 µg/mL | ≥ 32 µg/mL | ≤ 4 µg/mL | ≥ 32 µg/mL | – |
| CC[C@H]1OC(=O)[C@@]2(C)CCOC(C)(C[C@@H](C)CN(CC(C)C)[C@H](C)[C@H]3NC(=O)O[C@@]31C)[C@H](O[C@@H]1OC(C)CC(N(C)C)C1O)[C@@H](C)C2=O (stereo partly shown) [Compound 222] | 8 to 32 µg/mL (≈ 11.7 to 46.9 µM) | – | – | – | – | – |
| CCC1CO[C@@]2(C)C[C@@H](C)CN[C@H](C)[C@H]3NC(=O)O[C@]3(C)[C@@H](CC)OC(=O)[C@@]1(C)C(=O)[C@H](C)[C@H]2OC1OC(C)CC(N(C)C)C1O (stereo partly shown) [Compound 225] | ≥ 32 µg/mL | – | – | – | – | – |
| CC[C@H]1OC(=O)C(C)C(=O)[C@H](C)[C@@H](OC2OC(CNCC3CC3)CC(N(C)C)C2O)[C@](C)(OC)C[C@@H](C)CN[C@H](C)[C@H]2NC(=O)O[C@@]21C (stereo partly shown) [Compound 119, 3-Descladinosyl-3-oxo-6-O-methyl-N9a-desmethyl-11,12-dideoxy-12,11-(oxycarbonylimino)-6′-(cyclopropylmethylamino) Azithromycin] | ≥ 32 µg/mL | – | ≥ 32 µg/mL | ≤ 4 µg/mL | 8 to 32 µg/mL (≈ 11.7 to 46.9 µM) | – |
| CC[C@H]1OC(=O)[C@]2(C)CCOC(C)(C[C@@H](C)CN[C@H](C)[C@H]3NC(=O)O[C@@]31C)[C@H](O[C@@H]1O[C@H](CNCC(F)(F)F)C[C@H](N(C)C)[C@H]1O)[C@@H](C)C2=O [Compound 207] | ≥ 32 µg/mL | – | – | – | – | – |
| CC[C@H]1OC(=O)[C@]2(C)CCOC(C)(C[C@@H](C)CN[C@H](C)[C@H]3NC(=O)O[C@@]31C)[C@H](O[C@@H]1O[C@H](CNC34CC(C3)C4)C[C@H](N(C)C)[C@H]1O)[C@@H](C)C2=O [Compound 205] | – | – | – | – | – | + (values of 32 mg/L or greater) |
| CC[C@H]1OC(=O)[C@]2(C)CCO[C@](C)(C[C@@H](C)CN[C@H](C)[C@H]3NC(=O)O[C@@]31C)[C@H](O[C@@H]1O[C@H](CNC3CC3)C[C@H](N(C)C)[C@H]1O)[C@@H](C)C2=O [Compound 203] | ≥ 32 µg/mL | ≥ 32 µg/mL | – | – | – | – |
| 3-Descladinosyl-3-oxo-6-O-methyl-N9a-desmethyl-11,12-dideoxy-12,11-(oxycarbonylimino)-6,11-(Z-2-butenyl)-6′-cyclopropylamino azithromycin [Compound 230] | – | – | – | – | – | + (values of 32 mg/L or greater) |
